Measured values from ChEMBL document CHEMBL1201862, “PubChem BioAssay data set” (2004).
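Growth conditions: 96-well plates. Treatment: test compound, 48 hours, 5 concentrations. Analysis: linear interpolation between bracketing concentrations; unreached endpoints set to highest concentration. GI50 = concentration required for 50% inhibition of growth.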 Activity calls are given as the source filed them. Rule as the data show it: active = GI50 up to about 1.1 µM and inactive = higher.

Columns and labels:
Experiment in all cases: DTP human tumour cell line panel, 48 h
HL-60 = system: HL-60
K562 = system: K562
SNB-75 = system: SNB-75
SF-268 = system: SF-268
Malme-3M = system: Malme-3M
CCRF-CEM = system: CCRF-CEM
UO-31 = system: UO-31
SW-620 = system: SW-620
PC-3 = system: PC-3
NCI-H23 = system: NCI-H23
A549 = system: A549
RXF 393 = system: RXF 393
SF-539 = system: SF-539
HOP-92 = system: HOP-92
SK-MEL-28 = system: SK-MEL-28
TK-10 = system: TK-10
SK-MEL-2 = system: SK-MEL-2
OVCAR-4 = system: OVCAR-4
HOP-62 = system: HOP-62
RPMI-8226 = system: RPMI-8226

Measured: GI50

CC1C2(C)OCC(C#N)(C(=N)O2)C1(C#N)C#N (stereo not drawn)
inactive: HL-60 15.6 µM | K562 32.8 µM | SNB-75 96.8 µM | SF-268 22.8 µM | Malme-3M 18.5 µM | CCRF-CEM 22.8 µM | UO-31 36.2 µM | SW-620 25.9 µM | PC-3 24.2 µM | NCI-H23 29.3 µM | A549 > 100 µM | RXF 393 27.4 µM | SF-539 23.1 µM | HOP-92 21.9 µM | SK-MEL-28 24.8 µM | TK-10 37.1 µM | SK-MEL-2 14.4 µM

CC(C)(C)c1c2c(c(C(C)(C)C)c3c1OCN(Cc1ccccc1)C3)OCN(Cc1ccccc1)C2
inactive: K562 17.6 µM | SNB-75 37.2 µM | OVCAR-4 44.7 µM | SF-268 16.2 µM | Malme-3M 18.7 µM | CCRF-CEM 28 µM | UO-31 17.2 µM | SW-620 24.5 µM | PC-3 16.6 µM | NCI-H23 12.9 µM | HOP-62 18.9 µM | A549 17.6 µM | RXF 393 14.7 µM | SF-539 16 µM | RPMI-8226 8.69 µM | HOP-92 12 µM | SK-MEL-28 29.6 µM | TK-10 15 µM | SK-MEL-2 16.6 µM

CCOC(=O)CCC(NC(=O)c1ccc(Nc2nc3ccccc3nc2C(=O)OCC)cc1)C(=O)OCC (stereo not drawn)
inactive: HL-60 > 100 µM | K562 > 100 µM | SNB-75 2.36 µM | OVCAR-4 1.61 µM | SF-268 7.71 µM | Malme-3M 6.67 µM | CCRF-CEM > 100 µM | UO-31 4.28 µM | SW-620 5.77 µM | PC-3 16.9 µM | NCI-H23 7.52 µM | HOP-62 3.89 µM | A549 3.78 µM | SF-539 2.48 µM | RPMI-8226 6.76 µM | HOP-92 3.91 µM | SK-MEL-28 8.91 µM | TK-10 2.92 µM | SK-MEL-2 6.79 µM

C=CCC1(Sc2ccccn2)Sc2ccc3ccccc3c2-c2c(ccc3ccccc23)S1
inactive: HL-60 > 100 µM | K562 > 100 µM | SNB-75 55.7 µM | OVCAR-4 > 100 µM | SF-268 > 100 µM | Malme-3M > 100 µM | CCRF-CEM > 100 µM | UO-31 > 100 µM | SW-620 > 100 µM | PC-3 > 100 µM | NCI-H23 > 100 µM | HOP-62 > 100 µM | A549 > 100 µM | RXF 393 > 100 µM | SF-539 > 100 µM | HOP-92 > 100 µM | SK-MEL-28 > 100 µM | TK-10 > 100 µM | SK-MEL-2 > 100 µM

CCOP(=O)(Nc1ccc(-c2ccccc2)cc1)OCC
inactive: K562 74.1 µM | SNB-75 74.3 µM | OVCAR-4 96.4 µM | SF-268 74.6 µM | Malme-3M > 100 µM | UO-31 57.9 µM | PC-3 86.5 µM | NCI-H23 > 100 µM | HOP-62 > 100 µM | A549 81.5 µM | RXF 393 34.6 µM | RPMI-8226 43.3 µM | HOP-92 24.8 µM | SK-MEL-28 > 100 µM | TK-10 > 100 µM | SK-MEL-2 > 100 µM

CCOC(=O)c1nc2c3c(ncn2n1)Oc1c(c(-c2ccccc2)nn1-c1ccccc1)C3c1ccc(OC)c(OC)c1 (stereo not drawn)
inactive: K562 7.24 µM | SNB-75 31.3 µM | OVCAR-4 6.04 µM | SF-268 15.3 µM | Malme-3M > 100 µM | CCRF-CEM > 100 µM | UO-31 > 100 µM | SW-620 > 100 µM | PC-3 > 100 µM | NCI-H23 > 100 µM | HOP-62 16.3 µM | A549 59.2 µM | RXF 393 23.4 µM | SF-539 11.9 µM | RPMI-8226 25.9 µM | HOP-92 41.1 µM | SK-MEL-28 49.2 µM | TK-10 > 100 µM | SK-MEL-2 > 100 µM

O=S(=O)(CCC[C@H]1[C@@H](CCOCc2ccccc2)C2CCCN1O2)c1ccccc1 (stereo partly drawn)
inactive: K562 63.2 µM | SNB-75 > 100 µM | OVCAR-4 > 100 µM | SF-268 > 100 µM | Malme-3M > 100 µM | CCRF-CEM > 100 µM | UO-31 > 100 µM | SW-620 > 100 µM | PC-3 > 100 µM | NCI-H23 > 100 µM | HOP-62 > 100 µM | A549 > 100 µM | RXF 393 > 100 µM | SF-539 > 100 µM | HOP-92 > 100 µM | SK-MEL-28 > 100 µM | TK-10 > 100 µM

Cc1ccc(NC(=O)/C(Cc2nc3ccc([N+](=O)[O-])cc3nc2O)=N\NC(=O)C[n+]2ccccc2)c(C)c1
inactive: HL-60 30 µM | SNB-75 97.3 µM | OVCAR-4 23 µM | SF-268 67.5 µM | CCRF-CEM 26.6 µM | UO-31 18.4 µM | SW-620 61.1 µM | PC-3 39 µM | NCI-H23 65.6 µM | HOP-62 38.9 µM | A549 23.3 µM | RXF 393 4.06 µM | SF-539 77.1 µM | HOP-92 37.5 µM | SK-MEL-28 77.4 µM | TK-10 21.2 µM | SK-MEL-2 39.9 µM

CS/C(=N\C#N)NC1CC(n2cc(C)c(=O)[nH]c2=O)OC1CO (stereo not drawn)
inactive: HL-60 > 100 µM | K562 > 100 µM | SNB-75 > 100 µM | OVCAR-4 > 100 µM | SF-268 > 100 µM | Malme-3M > 100 µM | CCRF-CEM > 100 µM | UO-31 > 100 µM | SW-620 > 100 µM | PC-3 > 100 µM | NCI-H23 > 100 µM | HOP-62 > 100 µM | A549 > 100 µM | RXF 393 > 100 µM | SF-539 > 100 µM | HOP-92 > 100 µM | SK-MEL-28 > 100 µM | TK-10 > 100 µM | SK-MEL-2 > 100 µM

O=C([O-])C(O)C(O)C(O)C(O)C(=O)O.[K+] (stereo not drawn)
inactive: HL-60 76.2 µM | K562 > 100 µM | SNB-75 > 100 µM | OVCAR-4 > 100 µM | SF-268 > 100 µM | Malme-3M > 100 µM | CCRF-CEM > 100 µM | UO-31 > 100 µM | SW-620 > 100 µM | PC-3 > 100 µM | NCI-H23 > 100 µM | HOP-62 > 100 µM | A549 > 100 µM | RXF 393 > 100 µM | SF-539 > 100 µM | HOP-92 > 100 µM | SK-MEL-28 > 100 µM | SK-MEL-2 > 100 µM

CN(C)CC[N+](C)(C)[BH2-]C(O)O
inactive: HL-60 > 100 µM | K562 > 100 µM | SNB-75 > 100 µM | OVCAR-4 > 100 µM | SF-268 > 100 µM | CCRF-CEM > 100 µM | UO-31 > 100 µM | SW-620 > 100 µM | PC-3 > 100 µM | NCI-H23 > 100 µM | HOP-62 > 100 µM | A549 > 100 µM | RXF 393 > 100 µM | SF-539 > 100 µM | HOP-92 > 100 µM | SK-MEL-28 > 100 µM | TK-10 > 100 µM | SK-MEL-2 > 100 µM
